# Measurements published in patent US20220144915A1, “STABILIZATION OF PRANDIAL OR BASAL INSULIN ANALOGUES BY AN INTERNAL DISELENIDE BRIDGE” (THE TRUSTEES OF INDIANA UNIVERSITY, priority 2019, published 2022).
# What was measured:
# [1] = side-chain -SH versus -SeH; cited from earlier work
# MCF-7 = assay: Mitogenicity: cyclin D1 / cyclin G2 mRNA by q-RT-rtPCR in MCF-7 cells; format: cell-based, human
# Text: Increased expression of the gene encoding cyclin D1 and decreased expression of the gene encoding cyclin G2 are characteristic of cellular proliferation in response to signaling by mitogenic insulin analogues or IGFs.
# An assay for relative mitogenicity among insulin analogues is provided by transcriptional signaling leading to reciprocal regulation of the genes encoding cyclin D1 and cyclin G2 (Glidden, M. D., et al. (2018) J. Biol. Chem. 293: 47-68).
Compound,pKa [1],"mitogenic signature (cyclin D1 activation, cyclin G2 repression) (MCF-7)"
"N[C@@H](C[SeH])C(=O)O [Sec, selenocysteine]",approximately 5.2,
"N[C@@H](CS)C(=O)O [Cys, cysteine]",approximately 8.3,
"IGF-1: mitogenic growth factor, positive control",,stimulates cyclin D1 transcription and inhibits cyclin G2 transciption to a more marked extent
